pIC50: −log10 of the molar value.

Broadly, the pIC50 is the IC50 on a negative log10 scale, so that one unit is a factor of ten.

T1 sequence (P31749 whole entry E17K): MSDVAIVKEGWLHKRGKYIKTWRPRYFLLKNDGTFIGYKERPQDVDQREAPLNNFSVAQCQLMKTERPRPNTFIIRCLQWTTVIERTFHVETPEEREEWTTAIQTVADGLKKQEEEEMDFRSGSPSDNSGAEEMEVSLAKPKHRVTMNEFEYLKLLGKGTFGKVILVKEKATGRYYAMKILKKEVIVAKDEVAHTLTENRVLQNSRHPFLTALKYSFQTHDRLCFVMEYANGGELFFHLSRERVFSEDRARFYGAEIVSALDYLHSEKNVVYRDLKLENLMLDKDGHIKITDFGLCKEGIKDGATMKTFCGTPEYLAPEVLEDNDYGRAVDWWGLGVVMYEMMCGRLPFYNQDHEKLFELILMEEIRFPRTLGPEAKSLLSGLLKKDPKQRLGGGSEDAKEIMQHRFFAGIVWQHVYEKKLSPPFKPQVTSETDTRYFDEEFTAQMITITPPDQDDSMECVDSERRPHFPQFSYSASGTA

The assay has as its target T1, full length AKT E17K (Homo sapiens, UniProt P31749, E17K).
T1 construct: host or cells: HEK-293 (ATCC CRL-1573)
The experiment in a line: NanoBRET Target Engagement (TE) Assay. The settings on record: competitive displacement of tracer in cells, read-out: AKT1 E17K IC50. It is filed as cell-based. An outline of the steps: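 Compound and tracer incubated 2 h before luminescence at donor 450 nm and acceptor 600 nm, with extracellular signal inhibited. EC50 by sigmoidal variable-slope regression.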
Consider `COC(=O)c1ccc2nc(-c3cccnc3N)n(-c3ccc(CN4CCC(Nc5ccnc(C#N)n5)CC4)cc3)c2n1` [Example 414, Methyl 2-(2-aminopyridin-3-yl)-3-(4-((4-((2-cyanopyrimidin-4-yl)amino)piperidin-1-yl)methyl)phenyl)-3H-imidazo[4,5-b]pyridine-5-carboxylate], for which the pIC50 is > 7.82.
The value for `N#Cc1nccc(NC2CCN(Cc3ccc(-n4c(-c5cccnc5N)nc5ccc(C(=O)O)nc54)cc3)CC2)n1` [Example 415, 2-(2-Aminopyridin-3-yl)-3-(4-((4-((2-cyanopyrimidin-4-yl)amino)piperidin-1-yl)methyl)phenyl)-3H-imidazo[4,5-b]pyridine-5-carboxylic acid] was 5.00 to 6.22.
`N#Cc1nccc(NC2CCN(Cc3ccc(-n4c(-c5cccnc5N)nc5ccc(OCF)nc54)cc3)CC2)n1` [Example 416, 4-((1-(4-(2-(2-Aminopyridin-3-yl)-5-(fluoromethoxy)-3H-imidazo[4,5-b]pyridin-3-yl)benzyl)piperidin-4-yl)amino)pyrimidine-2-carbonitrile]: the negative logarithm of the IC50 (pIC50) was > 7.82.
With `N#Cc1nccc(NC2CCN(Cc3ccc(-n4c(-c5cccnc5N)nc5ccc(C6CCOC6)nc54)cc3)CC2)n1` (stereo not drawn) [Example 417, 4-((1-(4-(2-(2-Aminopyridin-3-yl)-5-(tetrahydrofuran-3-yl)-3H-imidazo[4,5-b]pyridin-3-yl)benzyl)piperidin-4-yl)amino)pyrimidine-2-carbonitrile] the figure was > 7.82; with `N#Cc1ccc(-c2ccc3nc(-c4cccnc4N)n(-c4ccc(CN5CCC(Nc6ccnc(C#N)n6)CC5)cc4)c3n2)nc1` [Example 418, 4-((1-(4-(2-(2-Aminopyridin-3-yl)-5-(5-cyanopyridin-2-yl)-3H-imidazo[4,5-b]pyridin-3-yl)benzyl)piperidin-4-yl)amino)pyrimidine-2-carbonitrile], 7.22 to 7.82; with `N#Cc1ccc(-c2ccc3nc(-c4cccnc4N)n(-c4ccc(CN5CCC(Nc6ccnc(C#N)n6)CC5)cc4)c3n2)cn1` [Example 419, 4-((1-(4-(2-(2-Aminopyridin-3-yl)-5-(6-cyanopyridin-3-yl)-3H-imidazo[4,5-b]pyridin-3-yl)benzyl)piperidin-4-yl)amino)pyrimidine-2-carbonitrile], > 7.82.
As to `N#Cc1nccc(NC2CCN(Cc3ccc(-n4c(-c5cccnc5N)nc5ccc(C6COC6)nc54)cc3)CC2)n1` [Example 420, 4-((1-(4-(2-(2-Aminopyridin-3-yl)-5-(oxetan-3-yl)-3H-imidazo[4,5-h]pyridin-3-yl)benzyl)piperidin-4-yl)amino)pyrimidine-2-carbonitrile], the pIC50 is > 7.82.
With `COc1ccc(-c2ccc3nc(-c4cccnc4N)n(-c4ccc(CN5CCC(Nc6ccnc(C#N)n6)CC5)cc4)c3n2)cc1` [Example 421, 4-((1-(4-(2-(2-Aminopyridin-3-yl)-5-(4-methoxyphenyl)-3H-imidazo[4,5-b]pyridin-3-yl)benzyl)piperidin-4-yl)amino)pyrimidine-2-carbonitrile] the figure was > 7.82.
The value for `COc1ccccc1-c1ccc2nc(-c3cccnc3N)n(-c3ccc(CN4CCC(Nc5ccnc(C#N)n5)CC4)cc3)c2n1` [Example 422, 4-((1-(4-(2-(2-Aminopyridin-3-yl)-5-(2-methoxyphenyl)-3H-imidazo[4,5-b]pyridin-3-yl)benzyl)piperidin-4-yl)amino)pyrimidine-2-carbonitrile] was > 7.82; that for `N#Cc1nccc(NC2CCN(Cc3ccc(-n4c(-c5cccnc5N)nc5ccc(OC(F)(F)F)nc54)cc3)CC2)n1` [Example 423, 4-((1-(4-(2-(2-Aminopyridin-3-yl)-5-(trifluoromethoxy)-3H-imidazo[4,5-b]pyridin-3-yl)benzyl)piperidin-4-yl)amino)pyrimidine-2-carbonitrile] was 6.22 to 7.22.
The value for `N#Cc1nccc(N2CCN(Cc3ccc(-n4c(-c5cccnc5N)nc5ccc(-c6cccnc6C#N)nc54)cc3)CC2)n1` [Example 424, 4-(4-(4-(2-(2-Aminopyridin-3-yl)-5-(2-cyanopyridin-3-yl)-3H-imidazo[4,5-b]pyridin-3-yl)benzyl)piperazin-1-yl)pyrimidine-2-carbonitrile] was 7.22 to 7.82; that for `CC(C)Oc1ccc2nc(-c3cccnc3N)n(-c3ccc(CN4CCC(Nc5ccnc(C#N)n5)CC4)cc3)c2n1` [Example 425, 4-((1-(4-(2-(2-Aminopyridin-3-yl)-5-isopropoxy-3H-imidazo[4,5-b]pyridin-3-yl)benzyl)piperidin-4-yl)amino)pyrimidine-2-carbonitrile] was > 7.82; that for `N#Cc1nccc(NN2CCN(Cc3ccc(-n4c(-c5cccnc5N)nc5ccc(-c6ccccc6)nc54)cc3)CC2)n1` [Example 426, 4-((4-(4-(2-(2-Aminopyridin-3-yl)-5-phenyl-3H-imidazo[4,5-b]pyridin-3-yl)benzyl)piperazin-1-yl)amino)pyrimidine-2-carbonitrile] was > 7.82.
As to `[2H]C([2H])([2H])Oc1ccc2nc(-c3cccnc3N)n(-c3ccc(CN4CCC(Nc5ccnc(C#N)n5)CC4)cc3)c2n1` [Example 427, 4-((1-(4-(2-(2-Aminopyridin-3-yl)-5-(methoxy-d3)-3H-imidazo[4,5-b]pyridin-3-yl)benzyl)piperidin-4-yl)amino)pyrimidine-2-carbonitrile], the pIC50 was > 7.82.
With `N#Cc1cccc(-c2ccc3nc(-c4cccnc4N)n(-c4ccc(CN5CCC(Nc6ccnc(C#N)n6)CC5)cc4)c3n2)n1` [Example 428, 4-((1-(4-(2-(2-Aminopyridin-3-yl)-5-(6-cyanopyridin-2-yl)-3H-imidazo[4,5-b]pyridin-3-yl)benzyl)piperidin-4-yl)amino)pyrimidine-2-carbonitrile] the figure was 7.22 to 7.82.
On to `N#Cc1cc(-c2ccc3nc(-c4cccnc4N)n(-c4ccc(CN5CCC(Nc6ccnc(C#N)n6)CC5)cc4)c3n2)ccn1` [Example 429, 4-((1-(4-(2-(2-Aminopyridin-3-yl)-5-(2-cyanopyridin-4-yl)-3H-imidazo[4,5-b]pyridin-3-yl)benzyl)piperidin-4-yl)amino)pyrimidine-2-carbonitrile], for which the pIC50 was > 7.82.
With `N#Cc1cncc(-c2ccc3nc(-c4cccnc4N)n(-c4ccc(CN5CCC(Nc6ccnc(C#N)n6)CC5)cc4)c3n2)c1` [Example 430, 4-((1-(4-(2-(2-Aminopyridin-3-yl)-5-(5-cyanopyridin-3-yl)-3H-imidazo[4,5-b]pyridin-3-yl)benzyl)piperidin-4-yl)amino)pyrimidine-2-carbonitrile] the figure was > 7.82.
With `N#Cc1nccc(NC2CCN(Cc3ccc(-n4c(-c5cccnc5N)nc5ccc(-c6cccnc6)nc54)cc3)CC2)n1` [Example 431, 4-((1-(4-(2-(2-Aminopyridin-3-yl)-5-(pyridin-3-yl)-3H-imidazo[4,5-b]pyridin-3-yl)benzyl)piperidin-4-yl)amino)pyrimidine-2-carbonitrile] the figure was > 7.82; with `N#Cc1nccc(N2CCN(Cc3ccc(-n4c(-c5cccnc5N)nc5ccc(-c6cccnc6)nc54)cc3)CC2)n1` [Example 432], > 7.82.
With `N#Cc1nccc(NC2CCN(Cc3ccc(-n4c(-c5cccnc5N)nc5ccc(-c6ccncc6)nc54)cc3)CC2)n1` [Example 433, 4-((1-(4-(2-(2-Aminopyridin-3-yl)-5-(pyridin-4-yl)-3H-imidazo[4,5-b]pyridin-3-yl)benzyl)piperidin-4-yl)amino)pyrimidine-2-carbonitrile] the figure was > 7.82; with `N#Cc1ncnc(NC2CC3(CCN(Cc4ccc(-n5c(-c6cccnc6N)nc6ccc(N7CCOCC7)nc65)cc4)CC3)C2)n1` [Example 434, 4-((7-(4-(2-(2-Aminopyridin-3-yl)-5-morpholino-3H-imidazo[4,5-b]pyridin-3-yl)benzyl)-7-azaspiro[3.5]nonan-2-yl)amino)-1,3,5-triazine-2-carbonitrile], 7.22 to 7.82.
`CSc1ccc2nc(-c3cccnc3N)n(-c3ccc(CN4CCC(Nc5ccnc(C#N)n5)CC4)cc3)c2n1` [Example 435, 4-((1-(4-(2-(2-Aminopyridin-3-yl)-5-(methylthio)-3H-imidazo[4,5-b]pyridin-3-yl)benzyl)piperidin-4-yl)amino)pyrimidine-2-carbonitrile]: the pIC50 is > 7.82.
With `CS(=O)(=O)c1ccc2nc(-c3cccnc3N)n(-c3ccc(CN4CCC(Nc5ccnc(C#N)n5)CC4)cc3)c2n1` [Example 436, 4-((1-(4-(2-(2-Aminopyridin-3-yl)-5-(methylsulfonyl)-3H-imidazo[4,5-b]pyridin-3-yl)benzyl)piperidin-4-yl)amino)pyrimidine-2-carbonitrile] the figure was 6.22 to 7.22; with `COc1ccnc(-c2ccc3nc(-c4cccnc4N)n(-c4ccc(CN5CCC(Nc6ccnc(C#N)n6)CC5)cc4)c3n2)c1` [Example 437, 4-((1-(4-(2-(2-Aminopyridin-3-yl)-5-(4-methoxypyridin-2-yl)-3H-imidazo[4,5-b]pyridin-3-yl)benzyl)piperidin-4-yl)amino)pyrimidine-2-carbonitrile], > 7.82.
On to `Cn1cc(-c2ccc3nc(-c4cccnc4N)n(-c4ccc(CN5CCC(Nc6ccnc(C#N)n6)CC5)cc4)c3n2)nn1` [Example 438, 4-((1-(4-(2-(2-Aminopyridin-3-yl)-5-(1-methyl-1H-1,2,3-triazol-4-yl)-3H-imidazo[4,5-b]pyridin-3-yl)benzyl)piperidin-4-yl)amino)pyrimidine-2-carbonitrile], for which the pIC50 is > 7.82.
With `COc1cc(-c2ccc3nc(-c4cccnc4N)n(-c4ccc(CN5CCC(Nc6ccnc(C#N)n6)CC5)cc4)c3n2)ccc1F` [Example 439, 4-((1-(4-(2-(2-Aminopyridin-3-yl)-5-(4-fluoro-3-methoxyphenyl)-3H-imidazo[4,5-h]pyridin-3-yl)benzyl)piperidin-4-yl)amino)pyrimidine-2-carbonitrile] the figure was > 7.82; with `CC(=O)Nc1cccc(-c2ccc3nc(-c4cccnc4N)n(-c4ccc(CN5CCC(Nc6ccnc(C#N)n6)CC5)cc4)c3n2)c1` [Example 440, N-(3-(2-(2-Aminopyridin-3-yl)-3-(4-((4-((2-cyanopyrimidin-4-yl)amino)piperidin-1-yl)methyl)phenyl)-3H-imidazo[4,5-b]pyridin-5-yl)phenyl)acetamide], > 7.82.

Values taken from patent US12209087B2, “AKT1 modulators” (Alterome Therapeutics, Inc., priority 2022, dated 2025).
